In US10907212B2, “Inhibitors of cell adhesion” (Regents of the University of Minnesota, priority 2016, dated 2021):
“Also recorded” adds a separate entry of the source. Where no end group is shown, it is not given here.

Columns and labels:
[1] = tested on: nectin 4 protein on NIH:OVCAR-5 cells; assay: Effect of peptides on anti-Nectin-4 antibody binding to cells as determined by flow cytometry; type: cell-based, human; conditions: for IgG MFI: IgG control primary antibody; for nectin-4 antibody binding compared to untreated control cells (in words): flow cytometry; for Flow binding: summary table, Nectin-4 antibody binding relative to control = 100
Method: Confluent monolayers of cells were detached from 75 cm^2 tissue culture flasks using Accutase cell dissociation buffer (Innovative Cell Technologies, San Diego, Calif.), washed, and labeled with mouse IgG or mAbs against Nectin-4 or Nectin-1 (2.5 μg/10^6 cells) in Flow Buffer [phosphate buffered saline (PBS) containing 2.5% newborn calf serum and 0.02% sodium azide] for 30 min at 4° C.. Cells were washed and incubated with goat anti-mouse IgG F(ab′)2 (Jackson ImmunoResearch, West Grove, Pa.), then washed again and incubated with streptavidin-allophycocyanin conjugate (Jackson ImmunoResearch, West Grove, Pa.) for 30 min each. Cells were washed and fixed in Flow Buffer containing 1% formaldehyde and analyzed in the University of Minnesota Flow Cytometry Resource with a BD Accuri™ C6 flow cytometer (BD Biosciences, San Jose, Calif.) using the Accuri™ software.
Briefly, NIH:OVCAR-5 cells that natively express a moderate amount of nectin 4 protein were incubated for 30 minutes in 150 μg/mL of soluble peptide in DMSO. After incubation, the cells were washed, and then triple antibody stained using mouse anti-nectin 4 (or IgG control) primary antibody, biotinylated goat anti-mouse secondary antibody, and streptavidin APC tertiary antibody. Finally, utilizing the University of Minnesota flow core's Accuri C6 flow cytometer, the relative antibody binding affinity for control and peptide-treated samples was quantitated and compared. Data was collected for each of the 57 peptides generated.

[2] = tested on: ovarian cancer cell aggregation and spheroid formation; assay: Spheroid assay for peptides (visual scale +1 to +5); type: cell-based, human; conditions: for Spheroid-24: 24 hrs, Control = 2; for Spheroid-24 / Spheroid-48: visual scale of +1 to +5; for Spheroid-48: 48 hrs, Control = 4
Method: Spheroids were formed from the NIH:OVCAR5 cell lines described above using the liquid overlay method. One milliliter of a single cell suspension was seeded at a concentration of 50,000 cells/ml in OptiMEM® media, into 24-well tissue culture plates coated with 0.5% Seakem agarose (in complete RPMI-1640). Plates were incubated at 37° C. in a humidified incubator with 5% CO2. At various time points up to 5 days, the plates were removed from the incubator and the spheroids were photographed with a Nikon CoolPix digital camera mounted on an Olympus CK2 inverted microscope with a 4× objective. The size of the spheroids was determined using the measure tool in Adobe Photoshop. The largest spheroids were quantified (20-90 spheroids/well), in a minimum of 8 wells, for a total of >300 spheroids per cell type.
The clinical relevance is that by blocking the formation of spheroids, the cells will be more sensitive to chemotherapy (which targets the single cells that proliferate more rapidly than spheroids).
The spheroid assay for peptides 1-30 were scored using a visual scale of +1 to +5. The controls were scored at +2 (24 hrs) and +4 (48 hrs). […] It may be harder to visually assess the size at 24 hours, since the spheroids are relatively small, but and perhaps some of the peptides are affecting cell division, and that is why the spheroids are smaller than the controls at 48 hours, but not 24 hrs (this can be easily assayed with an MTT assay).

[3] = Run Five, 150 μg/mL peptide, 30 minutes, Control 5 = 17,768.90
[4] = Run Five, Control 5 = 2.142155332
[5] = Run Five, antibody binding relative to Control 5 = 100
[6] = Run Three, 150 μg/mL peptide, 30 minutes, Control 3 = 13,070.20
[7] = Run Three, antibody binding relative to Control 3 = 100.00
[8] = Run One, 150 μg/mL peptide, 30 minutes, Control 1 = 15,015
[9] = Run One, 150 μg/mL peptide, 30 minutes, Control 1 = 1,670
[10] = Run One, antibody binding relative to Control 1 = 100.00

Row | Substance | nectin-4 antibody binding compared to untreated control cells (in words) ([1]; 150 μg/mL peptide) | Flow binding [1] | Spheroid-24 [2] | Spheroid-48 [2] | N4 MFI [1, 8] | IgG MFI [1, 9] | N4 MFI/IgG MFI ([1]; Run One, Control 1 = 8.99) | nectin-4 antibody binding, percent of control [1, 10] | also measured
1 | VNITEFPYTPSPPEHGRRA-NH2 (listed as Homo sapiens) [Peptide 55] | – | – | – | – | – | – | – | – | N4 MFI [1, 3]: 19,498.24; N4 MFI/IgG MFI [1, 4]: 2.29; IgG MFI ([1]; Run Five, Control 5 = 8,294.87): 8,512.75; nectin-4 antibody binding, percent of control [1, 5]: 116
2 | VLAPYRERVEFLRP-NH2 (listed as Homo sapiens) [Peptide 35] | increased nectin-4 antibody binding | 119% | – | – | – | – | – | – | N4 MFI [1, 6]: 15,767.33; N4 MFI/IgG MFI ([1]; Run Three, Control 3 = 9.83): 8.59; IgG MFI ([1]; Run Three, Control 3 = 1330): 1835; nectin-4 antibody binding, percent of control [1, 7]: 118.67
3 | WTRLDGPLPSGVRV-NH2 (listed as Homo sapiens) [Peptide 22] | increased nectin-4 antibody binding | 143% | 1 | 3 | – | – | – | – | N4 MFI ([1]; Run Two, 150 μg/mL peptide, 30 minutes, Control 2 = 49,491): 70,336; N4 MFI/IgG MFI ([1]; Run Two, Control 2 = 9.46): 9.82; IgG MFI ([1]; Run Two, Control 2 = 5,233): 7,160; nectin-4 antibody binding, percent of control ([1]; Run Two, antibody binding relative to Control 2 = 100.00): 142.74
4 | LWHIGREGAMLKCL-NH2 (listed as Homo sapiens) [Peptide 20] | increased binding of nectin-4 antibody | 118% | – | 2 | 17,636 | 1,890 | 9.33 | 117.99 | –
5 | RLKGEAEYQEIRNP-NH2 (listed as Homo sapiens) [Peptide 43] | – | – | 5 | – | – | – | – | – | N4 MFI ([1]; Run Four, 150 μg/mL peptide, 30 minutes, Control 4 = 9,631.58): 9,677.93; N4 MFI/IgG MFI ([1]; Run Four, Control 4 = 9.387504873): 7.399; IgG MFI ([1]; Run Four, Control 4 = 1,026): 1308; nectin-4 antibody binding, percent of control ([1]; Run Four, antibody binding relative to Control 4 = 100): 97.26
6 | HSRSAAVTSEFHLV-NH2 (listed as Homo sapiens) [Peptide 15] | reduction in nectin-4 antibody binding; also recorded: reduced antibody binding | 44% | 1 | 2 | 7,980 | 2,158 | 3.70 | 43.63 | spheroid size (in words) [2]: reduced spheroid size
7 | RPSFTDGTIRLS-NH2 (listed as Homo sapiens) [Peptide 36] | – | – | – | 3 | – | – | – | – | N4 MFI [1, 6]: 13,633.18; N4 MFI/IgG MFI ([1]; Run Three, Control 3 = 9.83): 7.80; IgG MFI ([1]; Run Three, Control 3 = 1330): 1748; nectin-4 antibody binding, percent of control [1, 7]: 101.23
8 | AEASVRGLEDQNLW-NH2 (listed as Homo sapiens) [Peptide 19] | reduction in nectin-4 antibody binding; also recorded: reduced antibody binding | 38% | 1 | 2 | 7,278 | 2,254 | 3.23 | 37.65 | spheroid size (in words) [2]: reduced spheroid size
9 | TWQKSTNGSKQNV-NH2 (listed as Homo sapiens) [Peptide 33] | – | – | – | – | – | – | – | – | N4 MFI [1, 6]: 10,425.01; N4 MFI/IgG MFI ([1]; Run Three, Control 3 = 9.83): 8.31; IgG MFI ([1]; Run Three, Control 3 = 1330): 1255; nectin-4 antibody binding, percent of control [1, 7]: 78.11
10 | HGRRAGPVPTA-NH2 (listed as Homo sapiens) [Peptide 56] | – | – | – | 3 | – | – | – | – | N4 MFI [1, 3]: 21,060.14; N4 MFI/IgG MFI [1, 4]: 2.035; IgG MFI ([1]; Run Five, Control 5 = 8,294.87): 10,346.61; nectin-4 antibody binding, percent of control [1, 5]: 113.1
11 | NYSLAGTYICEATN-NH2 (listed as Homo sapiens) [Peptide 53] | – | – | – | – | – | – | – | – | N4 MFI [1, 3]: 40,909.47; N4 MFI/IgG MFI [1, 4]: 1.37; IgG MFI ([1]; Run Five, Control 5 = 8,294.87): 29,864.47; nectin-4 antibody binding, percent of control [1, 5]: 116.6
12 | LPSLNPGPALEEGQ-NH2 (listed as Homo sapiens) [Peptide 11] | – | – | ~1? | 3 | 15,211 | 2,268 | 6.71 | 96.99 | –
